Results reported in patent US20230312584A1, “SALT OF NUCLEOSIDE ANALOG, AND CRYSTAL FORM, PHARMACEUTICAL COMPOSITION AND USE THEREOF” (priority 2020, published 2023).

What was measured:
[1] = Toxicity test of beagle dogs by intragastric administration for 14 days and drug withdrawal for 14 days; assay type: in vivo; conditions: both sexes, dog, in vivo, po; beagle dogs, males and females, intragastric once a day for 14 consecutive days, 14 days recovery; read-out: no-observed-adverse-effect level (NOAEL)
Description: (§1) The safety of the hydrobromide of Compound Z in SD rats and beagle dogs was evaluated in accordance with the “Good Laboratory Practice” (2017) issued by the National Medical Products Administration (NMPA), and the acute toxicity test and 14-day long-term toxicity test were carried out, respectively.
(§2) Test method: 40 beagle dogs were randomly divided into 4 groups, 10 dogs in each group, half male and half female. The dogs were given an intragastric administration of a solvent of PEG400/Kolliphor® HS15/ultrapure water (40/10/50, v/v/v) and the hydrobromide (30, 100 and 250 mg/kg) of Compound Z dissolved in the solvent, respectively, once a day for 14 consecutive days; three-fifths of the animals in each group (6 animals in each group, half male and half female) were dissected after the end of the administration period (day 15); the remaining animals in each group (4 animals in each group, half male and half female) were dissected at the end of the 14-day recovery period (day 29). The following indexes were observed, measured and evaluated: clinical observations, ophthalmological examination, body weight, feed consumption, body temperature, electrocardiogram (HR, PR interval, QRS interval, T wave amplitude, QT interval and QTcV interval), clinical Pathology (hematology, blood coagulation, plasma biochemistry, urine), pathological examination (morphological observation by naked eyes, organ weight, histopathological examination).

beagle dogs [2] = assay: as above; assay type: in vivo
Description: as §1, §2

in vivo = assay: in vivo; design: species or system SD rats; conditions: both sexes, Sprague-Dawley (SD), rat, po
Description: as §1
(§3) Method: 120 SD rats were randomly divided into 4 groups, 30 rats in each group, half male and half female. The rats were given an intragastric administration of a solvent of PEG400/Kolliphor® HS15/ultrapure water (40/10/50, v/v/v) and the hydrobromide (100, 300 and 600 mg/kg) of Compound Z dissolved in the solvent, respectively, once a day for 14 consecutive days; two-thirds of the animals in each group (20 animals in each group, half male and half female) were dissected after the end of the administration period (day 15); the remaining animals in each group (10 animals in each group, half male and half female) were dissected at the end of the 14-day recovery period (day 29). The following indexes were observed, measured and evaluated: clinical observations, body weight, feed consumption, ophthalmological examination, hematology, blood coagulation, plasma biochemistry and plasma electrolytes, urinalysis, anatomical and morphological observation by naked eyes, organ weight and histopathological examination, and the accompanying rat bone marrow micronucleus test.

SD rats [3] = assay: in vivo; conditions: both, Sprague-Dawley (SD), rat, 600 mg/kg, 14 days
Description: as §1, §3

Hygroscopicity test = assay type: physicochemical; conditions: 25° C., RH80%, 24 hours, hydrobromide
Description: An appropriate amount of a test product is taken and spread in a glass-stoppered weighing bottle that has been placed in an artificial climate box (temperature is 25° C.±1° C., relative humidity is 80%±2%) for 24 hours. The weighing bottle is opened, put together with the stopper in the artificial climate box (the temperature is 25° C.±1° C., the relative humidity is 80%±2%) for 24 hours, and then taken out. The moisture content of the test product before and after being placed in the artificial climate box is measured, and the hygroscopicity is measured by comparing the change in moisture content.

[4] = Toxicity test of a single intragastric administration to SD rats; assay type: in vivo; conditions: both sexes, Sprague-Dawley (SD), rat, in vivo, po
Description: as §1
(§4) Method: 40 SD rats were randomly divided into 4 groups, 10 rats in each group, half male and half female. The rats were given a single intragastric administration of a solvent of PEG400/Kolliphor® HS 15/ultrapure water (40/10/50, v/v/v) and the hydrobromide of Compound Z (200, 600 and 2000 mg/kg, based on the free base) dissolved in this solvent, respectively. After administration, observation was continued for 14 days, and dissection was performed on the 15th day as planned. During the test, clinical observations, body weight, feed consumption and anatomical and morphological observations by naked eyes were evaluated.

SD rats [5] = assay: as above; assay type: in vivo; conditions: SD rats, single intragastric 200, 600 and 2000 mg/kg, 14 days observation
Description: as §1, §4

[6] = Toxicity test of a single intragastric administration to beagle dogs; assay type: in vivo; conditions: both sexes, beagle, dog, in vivo, po
Description: as §1
(§5) Method: 8 beagle dogs were randomly divided into 4 groups, 2 dogs in each group, one male and one female. The dogs were given a single intragastric administration of a solvent of PEG400/Kolliphor® HS 15/ultrapure water (40/10/50, v/v/v) and the hydrobromide of Compound Z (50, 250 and 1000 mg/kg, based on the free base) dissolved in this solvent, respectively. After administration, observation was continued for 14 days, and dissection was performed on the 15th day as planned. Clinical observations, body weight, feed consumption, clinical pathology (blood, blood coagulation, plasma biochemistry), and morphological observation by naked eyes were evaluated.

beagle dogs [7] = assay: as above; assay type: in vivo; conditions: beagle dogs, single intragastric 50, 250 and 1000 mg/kg
Description: as §1, §5

[8] = assay type: physicochemical; conditions: 7 days
Description: The test product is placed in suitable clean containers, and then placed under conditions of high temperature (80° C.), high humidity (25° C., relative humidity 92.5%), and light (light intensity 4500±500 1× and 90 μw/cm^2), respectively, for 7 days, and samples are taken on the 7th day and tested according to the stability inspection items.

physchem = assay type: physicochemical; conditions: 37 °C, water, thermodynamic from solid, Solubility in water
Description: About 10 mg of the test product is taken and put in a 1.5 mL sample tube, to which 1 mL of deionized water is added, and then the sample tube is placed in a constant temperature mixer and shaken at 37° C. for 30 minutes; after shaking, the sample tube is placed in a centrifuge to undergo centrifugation for 2 minutes. Then, 500 μL of the supernatant is taken and diluted with acetonitrile to an appropriate concentration, which is used as a test sample solution for HPLC analysis.
An appropriate amount of sample was weighed and put in a glass test tube, to which a selected solvent was gradually added. The clarification process was observed.

[9] = listed as Hydrobromide of Compound Z with crystal form A

Br.[2H]c1cc([C@]2(C#N)O[C@H](COC(=O)C(C)C)[C@@H](OC(=O)C(C)C)[C@H]2OC(=O)C(C)C)n2ncnc(N)c12 [Hydrobromide of Compound Z, (2R,3R,4R,5R)-2-(4-aminopyrrolo[2,1-f][1,2,4]triazin-7-yl-5-d)-2-cyano-5-(isobutyryloxymethyl)tetrahydrofuran-3,4-diyl bis(2-methylpropanoate) hydrobromide]
NOAEL at 14 days [1]: 30 mg/kg
adverse drug reactions (beagle dogs [2]; beagle dogs, 250 mg/kg and 100 mg/kg intragastric once a day for 14 days): adverse drug reactions in ophthalmological examination, clinical pathology, pathological examination, and the like could be observed
accidental death (beagle dogs [2]; beagle dogs, 30, 100 and 250 mg/kg intragastric once a day for 14 days): no accidental death
various indexes at the end of the recovery period (beagle dogs [2]; beagle dogs, after 14-day recovery period): returned to normal or showed a recovery trend
NOAEL at 14 days (in vivo): 100 mg/kg
death (SD rats [3]): two animals in the 600 mg/kg dose group died
Hygroscopicity (Hygroscopicity test): None
increase in moisture content (Hygroscopicity test): no increase
Hygroscopicity (Hygroscopicity test; [9]): no hygroscopicity
increase in moisture content (Hygroscopicity test; [9]): RH80%, with an increase in moisture content of <0.1%,
Hygroscopicity (Hygroscopicity test; listed as hydrobromide of Compound Z with crystal form A): no hygroscopicity
Hygroscopicity (Hygroscopicity test; listed as hydrobromide of Compound Z): no hygroscopicity
MTD at 14 days [4]: ≥ 2000 mg/kg
early death or euthanasia (SD rats [5]): no early death or euthanasia
MTD at 14 days [6]: ≥ 1000 mg/kg
accidental death (beagle dogs [7]): no accidental death
Stability [8]: Good stability under high temperature (80° C.), high
solubility at 30 min (physchem): 410 µg/mL
